Read-outs that look alike come from different tables or passages of the source.
How the values were obtained:
[1] = system: mono-methyl arginine in RKO cells; experiment: RKO Methylation Assay, In Cell Western (ICW) for detection of mono-methyl arginine and DNA content; assay type: cell-based; settings: Homo sapiens, RKO, 72 h, RKO cells, read-out: In Cell Western EC30
Excerpt: RKO adherent cells were purchased from ATCC (American Type Culture Collection), Manassas, Va., USA. DMEM/Glutamax medium, penicillin-streptomycin, heat inactivated fetal bovine serum, 0.05% trypsin and D-PBS were purchased from Life Technologies, Grand Island, N.Y., USA. Odyssey blocking buffer, 800 CW goat anti-rabbit IgG (H+L) antibody, and Licor Odyssey infrared scanner were purchased from Licor Biosciences, Lincoln, Nebr., USA. Mono-methyl arginine antibody was purchased from Cell Signaling Technology, Danvers, Mass., USA. Methanol was purchased from VWR, Franklin, Mass., USA. 10% Tween 20 was purchased from KPL, Inc., Gaithersburg, Md., USA. DRAQ5 was purchased from Biostatus Limited, Leicestershire, UK.
RKO adherent cells were maintained in growth medium (DMEM/Glutamax medium supplemented with 10% v/v heat inactivated fetal bovine serum and 100 units/mL penicillin-streptomycin) and cultured at 37° C. under 5% CO2.
Cell treatment, In Cell Western (ICW) for detection of mono-methyl arginine and DNA content. […] Compound (100 nL) from a 96-well source plate was added directly to 384 well cell plate. Plates were incubated at 37° C., 5% CO2 for 72 hours. After three days of incubation, plates were brought to room temperature outside of the incubator for ten minutes and blotted on paper towels to remove cell media. 50 μL of ice cold 100% methanol was added directly to each well and incubated for 30 min at room temperature. After 30 min, plates were transferred to a Biotek EL406 plate washer and washed 2 times with 100 μL per well of wash buffer (1×PBS). Next 60 μL per well of Odyssey blocking buffer (Odyssey Buffer with 0.1% Tween 20 (v/v)) were added to each plate and incubated 1 hour at room temperature. Blocking buffer was removed and 20 μL per well of primary antibody was added (mono-methyl arginine diluted 1:200 in Odyssey buffer with 0.1% Tween 20 (v/v)) and plates were incubated overnight (16 hours) at 4° C. Plates were washed 5 times with 100 μL per well of wash buffer. […] The plates were washed 5 times with 100 μL per well wash buffer then 2 times with 100 μL per well of water. Plates were allowed to dry at room temperature then imaged on the Licor Odyssey machine which measures integrated intensity at 700 nm and 800 nm wavelengths. Both 700 and 800 channels were scanned.
Calculations: First, the ratio for each well was determined by:
Each plate included fourteen control wells of DMSO only treatment (minimum activation) as well as fourteen control wells for maximum activation treated with 20 μM of a reference compound. The average of the ratio values for each control type was calculated and used to determine the percent activation for each test well in the plate. Reference compound was serially diluted three-fold in DMSO for a total of nine test concentrations, beginning at 20 μM. Percent activation was determined and EC30 curves were generated using triplicate wells per concentration of compound.

[2] = target: full-length human PRMT8 isoform 1 (Homo sapiens, UniProt Q9NR22); experiment: PRMT8 Biochemical Assay (3H-SAM Flashplate, peptide substrate); settings: read-out: Biochemical IC50 PRMT8
Excerpt: General Materials. S-adenosylmethionine (SAM), S-adenosylhomocysteine (SAH), bicine, Tween20, dimethylsulfoxide (DMSO), bovine skin gelatin (BSG), isopropyl-β-D-thiogalactopyranoside (IPTG), and Tris(2-carboxyethyl)phosphine hydrochloride solution (TCEP) were purchased from Sigma-Aldrich at the highest level of purity possible. ^3H-SAM was purchase from American Radiolabeled Chemicals with a specific activity of 80 Ci/mmol. 384-well streptavidin Flashplates were purchased from PerkinElmer.
Substrates. Peptide representative of human histone H4 residues 31-45 was synthesized with an N-terminal linker-affinity tag motif and a C-terminal amide cap by 21st Century Biochemicals. The peptide was purified by high-performance liquid chromatography (HPLC) to greater than 95% purity and confirmed by liquid chromatography mass spectrometry (LC-MS). The sequence was Biot-Ahx-[…]-amide (SEQ ID NO.:8).
The resulting construct encodes an N-terminal GST tag and a thrombin cleavage sequence ([…] […] […] […] SPEF) (SEQ ID NO.:9) fused directly to Met 1 of PRMT8.
Protein Expression. E. coli (BL21(DE3) Gold, Stratagene) made competent by the CaCl2) method were transformed with the PRMT8 construct and ampicillin selection. Protein over-expression was accomplished by growing the PRMT8 expressing E. coli clone and inducing expression with 0.3 mM IPTG at 16° C. The culture was grown for 12 hours, harvested by centrifugation, and stored at −80° C. for purification.
Protein Purification. […] GST-tagged PRMT8 was eluted with 50 mM Tris, 2 mM glutathione, pH 7.8. Pooled fractions were cleaved by thrombin (10U) and dialysed in buffer A. GST was removed by reloading the cleaved protein sample onto glutathione sepharose column and PRMT8 was collected in the flow-through fractions. PRMT8 was purified further by ceramic hydroxyapatite chromatography. The column was washed with 50 mM phosphate buffer, 100 mM NaCl, 5% glycerol, 5 mM β-mercaptoethanol, pH 7.8 and PRMT8 was eluted by 100 mM phosphate in the same buffer. Protein was concentrated and buffer was exchanged to 50 mM Tris, 300 mM NaCl, 10% glycerol, 5 mM β-mercaptoethanol, pH 7.8 by ultrafiltration. The purity of recovered protein was 89%.
General Procedure for PRMT8 Enzyme Assays on Peptide Substrates. The assays were all performed in a buffer consisting of 20 mM Bicine (pH=7.6), 1 mM TCEP, 0.005% BSG, and 0.002% Tween 20, prepared on the day of use. Compounds in 100% DMSO (1 ul) were spotted into a polypropylene 384-well V-bottom plates (Greiner) using a Platemate Plus outfitted with a 384-channel head (Thermo Scientific). DMSO (1 ul) was added to Columns 11, 12, 23, 24, rows A-H for the maximum signal control and 1 ul of SAH, a known product and inhibitor of PRMT8, was added to columns 11, 12, 23, 24, rows I-P for the minimum signal control. A cocktail (40 ul) containing the PRMT8 enzyme was added by Multidrop Combi (Thermo-Fisher). The compounds were allowed to incubate with PRMT8 for 30 min at room temperature, then a cocktail (10 ul) containing ^3H-SAM and peptide was added to initiate the reaction (final volume=51 ul). The final concentrations of the components were as follows: PRMT8 was 1.5 nM, ^3H-SAM was 50 nM, non-radiolabeled SAM was 550 nM, peptide was 150 nM, SAH in the minimum signal control wells was 1 mM, and the DMSO concentration was 2%. The assays were stopped by the addition of non-radiolabeled SAM (10 ul) to a final concentration of 400 uM, which dilutes the ^3H-SAM to a level where its incorporation into the peptide substrate is no longer detectable. 50 ul of the reaction in the 384-well polypropylene plate was then transferred to a 384-well Flashplate and the biotinylated peptides were allowed to bind to the streptavidin surface for at least 1 hour before being washed once with 0.1% Tween20 in a Biotek ELx405 plate washer. […]

[3] = 72 hours compound incubation, mono-methyl arginine signal normalised to DNA content (DRAQ5), percent activation vs 20 μM reference compound
[4] = 72 hours incubation, mono-methyl arginine signal normalised to DNA content, single experiment or average of multiple experiments
[5] = single experiment or average of multiple experiments

Sequence of full-length human PRMT8 isoform 1 (Q9NR22 whole entry, canonical isoform): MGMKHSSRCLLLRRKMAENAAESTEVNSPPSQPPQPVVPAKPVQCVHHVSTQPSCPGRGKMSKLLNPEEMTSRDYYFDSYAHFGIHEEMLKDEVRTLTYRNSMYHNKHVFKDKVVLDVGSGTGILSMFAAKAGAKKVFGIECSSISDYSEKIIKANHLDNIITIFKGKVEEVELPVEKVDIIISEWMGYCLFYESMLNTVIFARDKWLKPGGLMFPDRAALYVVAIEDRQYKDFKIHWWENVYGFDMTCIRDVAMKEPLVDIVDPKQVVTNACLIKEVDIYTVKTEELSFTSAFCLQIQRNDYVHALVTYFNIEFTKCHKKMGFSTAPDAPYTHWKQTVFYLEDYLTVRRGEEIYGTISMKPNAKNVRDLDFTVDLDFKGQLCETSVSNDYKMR

| IC50 [2] [nM] | IC50 [2, 5] [nM] | Structure (SMILES) | EC30 [1, 3] [nM] | EC30 [1, 4] [nM] |
| --- | --- | --- | --- | --- |
| < 100 | 9 | CNCCN(C)Cc1c[nH]nc1[C@H]1CC[C@@]2(CCN(Cc3ccc(F)cc3)C2=O)CC1 [Compound 125] | < 3000 | 87.6 |
| 101 to 1000 | 185 | CNCCN(C)Cc1c[nH]nc1[C@H]1CC[C@H](OCCOc2ccccc2)CC1 [Compound 187] | 3010 to 12000 | 3160 |
| < 100 | 28.6 | CNCCN(C)Cc1c[nH]nc1C1CCC2(CCNC2=O)CC1 (centres unmarked) [Compound 176] | < 3000 | 2140 |
| < 100 | 13 | CNCCN(C)Cc1c[nH]nc1[C@H]1CC[C@H](COC)CC1 [Compound 167] | < 3000 | 18 |
| < 100 | 33.9 | CNCCN(C)Cc1c[nH]nc1[C@H]1CC[C@@H](OC2CCCCC2)CC1 [Compound 140] | < 3000 | 164 |
| < 100 | 83.7 | CNCCN(C)Cc1c[nH]nc1[C@H]1CC[C@@]2(CCN(CC(C)C)C2=O)CC1 [Compound 129] | < 3000 | 4.5 |
| < 100 | 8.2 | CNCCN(C)Cc1c[nH]nc1[C@H]1CC[C@]2(CCN(Cc3ccccc3)C2=O)CC1 [Compound 128] | < 3000 | 1080 |
| < 100 | 29.7 | CNCCN(C)Cc1c[nH]nc1[C@H]1CC[C@@]2(CCOC2)CC1 [Compound 141] | < 3000 | 132 |
| < 100 | 33 | CNCCN(C)Cc1c[nH]nc1[C@H]1CC[C@@]2(CCCO2)CC1 [Compound 143] | < 3000 | 59 |
| < 100 | 16.2 | CNCCN(C)Cc1c[nH]nc1C1CCC2(CCCCO2)CC1 (centres unmarked) [Compound 137] | < 3000 | 15 |
| < 100 | 18.1 | CNCCN(C)Cc1c[nH]nc1C1CCC2(CC1)CC(=O)N(CCC(C)C)C2 (centres unmarked) [Compound 165] | < 3000 | 510 |
| < 100 | 57.3 | CNCCN(C)Cc1c[nH]nc1C1CC(C)OC(C)C1 (centres unmarked) [Compound 179] | < 3000 | 476 |
| 101 to 1000 | 150 | CNCCN(C)Cc1c[nH]nc1C1CCC2(CC1)OCCO2 [Compound 177] | < 3000 | 571 |
| < 100 | 6.5 | CNCCN(C)Cc1c[nH]nc1[C@H]1CC[C@@]2(CCN(Cc3cc(F)cc(F)c3)C2=O)CC1 [Compound 126] | < 3000 | 638 |
| < 100 | 78.4 | CNCCN(C)Cc1c[nH]nc1C1CCC2(CC1)CC2 [Compound 144] | < 3000 | 63 |

More lines, now with the values behind:

| Structure (SMILES) | IC50 [2] [nM] | IC50 [2, 5] [nM] | EC30 [1, 3] [nM] | EC30 [1, 4] [nM] |
| --- | --- | --- | --- | --- |
| CNCCN(C)Cc1c[nH]nc1[C@H]1CC[C@]2(CCN(Cc3ccc(F)cc3)C2=O)CC1 [Compound 123] | < 100 | 24.7 | < 3000 | 44 |
| CNCCN(C)Cc1c[nH]nc1[C@H]1CC[C@H](OCCOc2ccc(OCCOC)cc2)CC1 [Compound 116] | < 100 | 11.8 | 3010 to 12000 | 8900 |
| CNCCN(C)Cc1c[nH]nc1C1CCCC(COCCC(O)CO)C1 (centres unmarked) [Compound 113] | 101 to 1000 | 119 | 3010 to 12000 | 7350 |
| CNCCN(C)Cc1c[nH]nc1[C@H]1CC[C@@]2(CCN(Cc3ccc(OCCOC)cc3)C2=O)CC1 [Compound 120] | < 100 | 25.1 | < 3000 | 9.8 |
| CNCCN(C)Cc1c[nH]nc1C1CC(OC(C)C)CC(OC(C)C)C1 (centres unmarked) [Compound 118] | > 10000 | > 10000 | 3010 to 12000 | 9570 |
| CNCCN(C)Cc1c[nH]nc1C1CCC(=O)N(CCc2ccccc2)C1 (centres unmarked) [Compound 110] | < 100 | 42.9 | < 3000 | 2550 |
| CCC(=O)N(CC1CCOCC1)[C@H]1CC[C@@H](c2n[nH]cc2CN(C)CCNC)CC1 [Compound 108] | 101 to 1000 | 252 | 3010 to 12000 | 8550 |
| CN(CCN)Cc1c[nH]nc1CCc1ccccc1 [Compound 9] | 101 to 1000 | 760 | 3010 to 12000 | 5610 |
| CNCCN(C)Cc1c[nH]nc1[C@H]1CC[C@]2(CCC(C)(C)O2)CC1 [Compound 104] | < 100 | 11.6 | < 3000 | 11.7 |
| CNCCN(C)Cc1c[nH]nc1[C@H]1CC[C@@]2(CCOC2(C)C)CC1 [Compound 106, Methyl [2-(methylamino)ethyl]([3-[(5R,8R)-1,1-dimethyl-2-oxaspiro[4.5]decan-8-yl]-1H-pyrazol-4-yl]methyl)amine] | < 100 | 14.5 | < 3000 | 22.7 |
| CNCCN(C)Cc1c[nH]nc1[C@H]1CC[C@]2(CCN(CC(C)C)C2=O)CC1 [Compound 124] | < 100 | 10.8 | < 3000 | 21.4 |
